From US8158628B2, “Sulfonylated 1,2,3,4-tetrahydropyrrolo[1,2-a]pyrazine compounds and their use as pharmaceuticals” (Gruenenthal GmbH, priority 2009, dated 2012)

These molecules were tested against T1, B1R of the rat (Rattus norvegicus, UniProt P97583) (assay: FLIPR Ca2+ functional assay, B1R antagonism, rat B1R in CHO K1 cells). Conditions: test substance 10 μM; rB1R CHO K1 cells; agonist Des-Arg9 bradykinin at EC80; % of maximum achievable inhibition.
T1 construct: expressed in transfected cells; host or cells: CHO K1 cells (Chinese hamster ovary), stably transfected
T1 sequence (P97583 1-337): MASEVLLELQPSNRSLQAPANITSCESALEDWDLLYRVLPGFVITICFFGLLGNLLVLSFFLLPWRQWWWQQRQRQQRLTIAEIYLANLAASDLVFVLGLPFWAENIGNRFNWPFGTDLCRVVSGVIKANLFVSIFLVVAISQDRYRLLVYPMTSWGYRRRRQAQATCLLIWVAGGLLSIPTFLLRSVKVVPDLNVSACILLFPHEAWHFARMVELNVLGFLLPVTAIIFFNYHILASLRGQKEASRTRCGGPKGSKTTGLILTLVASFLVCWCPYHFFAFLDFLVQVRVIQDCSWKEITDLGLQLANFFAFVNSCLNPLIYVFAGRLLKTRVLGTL
Type: cell-based
Procedure: The agonistic or antagonistic action of substances on the bradykinin 1 receptor (B1R) of the human and rat species can be quantified with ectopically expressing cell lines (CHO K1 cells) and with the aid of a Ca^2+-sensitive dye (Fluo-4) using a fluorescent imaging plate reader (FLIPR). The value in % activation is based on the Ca^2+ signal after addition of Lys-Des-Arg^9 bradykinin (0.5 nM) or Des-Arg^9 bradykinin (100 nM). Antagonists lead to a suppression of the Ca^2+ influx following administration of the agonist. The % inhibition in comparison with the maximum achievable inhibition is indicated.
1. Functional Investigation on the Bradykinin 1 Receptor (B1R) The agonistic or antagonistic action of substances can be determined on the bradykinin 1 receptor (B1R) of the human and rat species with the following assay. According to this assay, the Ca^2+ inflow through the channel is quantified with the aid of a Ca^2+-sensitive dye (Fluo-4 type, Molecular Probes Europe BV, Leiden, Netherlands) in a fluorescent imaging plate reader (FLIPR, Molecular Devices, Sunnyvale, USA). 2. Method: Chinese hamster ovary cells (CHO K1 cells) which are stably transfected with the human B1R gene (hB1R cells) or the B1R gene of the rat (rB1R cells) are used. For functional investigations these cells are plated-out onto black 96-well plates with a clear base (BD Biosciences, Heidelberg, Germany or Greiner, Frickenhausen, Germany) in a density of 20,000-35,000 cells/well. Overnight the cells are incubated at 37° C. and 5% CO2 in culture medium (hB1R cells: Ham's Nutrient Mixture F12, Gibco Invitrogen GmbH, Karlsruhe, Germany or DMEM, Sigma-Aldrich, Taufkirchen, Germany; rB1R cells: D-MEM/F12, Gibco Invitrogen, Karlsruhe, Germany) with 10 vol. % FBS (foetal bovine serum, Gibco Invitrogen GmbH, Karlsruhe, Germany or PAN Biotech GmbH, Aidenbach, Germany).
On the following day the cells are loaded with 2.13 μM Fluo-4 (Molecular Probes Europe BV, Leiden, Netherlands) in HBSS buffer (Hank's buffered saline solution, Gibco Invitrogen GmbH, Karlsruhe, Germany) with 2.5 mM probenecid (Sigma-Aldrich, Taufkirchen, Germany) and 10 mM HEPES (Sigma-Aldrich, Taufkirchen, Germany) for 60 min at 37° C. The plates are subsequently washed twice with HBSS buffer, and HBSS buffer which additionally contains 0.1% BSA (bovine serum albumin; Sigma-Aldrich, Taufkirchen, Germany), 5.6 mM glucose and 0.05% gelatine (Merck KGaA, Darmstadt, Germany) is added. After a further incubation of 20 minutes at RT, the plates are inserted into the FLIPR for Ca^2+ measurement. Alternatively they are washed with buffer A (15 mM HEPES, 80 mM NaCl, 5 mM KCl, 1.2 mM CaCl2, 0.7 mM MgSO4, 2 g/l glucose, 2.5 mM probenecid) and loaded with buffer A with added 2.5 μM Fluo-4 and 0.025% Pluronic F127 (Sigma-Aldrich, Taufkirchen, Germany). The cells are then washed twice with buffer A and incubated for 30 minutes with buffer A, which additionally contains 0.05% BSA and 0.05% gelatine, at RT and then used for Ca^2+ measurement in the FLIPR. The Ca^2+-dependent fluorescence is measured here before and after addition of substances (λex=488 nm, λem=540 nm). The quantification is performed by measuring the highest fluorescence intensity (FC, fluorescence counts) over time.
The FLIPR protocol comprises two additions of substance. Test substances (10 μM) are first pipetted onto the cells and the Ca^2+ inflow is compared with the control (hB1R: Lys-Des-Arg^9 bradykinin >=50 nM; rB1R: Des-Arg^9 bradykinin 10 μM). The value in % activation based on the Ca^2+ signal after addition of Lys-Des-Arg^9 bradykinin (>=50 nM) or Des-Arg^9 bradykinin (10 μM) is obtained therefrom. After incubation for 10-20 minutes, Lys-Des-Arg^9 bradykinin (hB1R) or Des-Arg^9 bradykinin (rB1R) is applied in the EC80 concentration and the inflow of Ca^2+ is likewise determined.
Antagonists lead to a suppression of the Ca^2+ inflow. The % inhibition in comparison with the maximum achievable inhibition is calculated. […]

| Structure (SMILES) | inhibition at 10 µM [%] |
| --- | --- |
| O=C(CC1c2cccn2CCN1S(=O)(=O)c1ccccc1)N1CCN(c2ccccc2F)CC1 (stereo not drawn) [Example 172, 2-[2-(Benzenesulfonyl)-1,2,3,4-tetrahydro-pyrrolo[1,2-a]pyrazin-1-yl]-1-[4-(2-fluorophenyl)-piperazin-1-yl]-ethanone] | 14.1 |
| O=C(CC1c2cccn2CCN1S(=O)(=O)c1ccccc1)N1CCN(c2ccc(Cl)c(Cl)c2)CC1 (stereo not drawn) [Example 231, 2-[2-(Benzenesulfonyl)-1,2,3,4-tetrahydro-pyrrolo[1,2-a]pyrazin-1-yl]-1-[4-(3,4-dichlorophenyl)-piperazin-1-yl]-ethanone] | -0.67 |
| Cc1cccc(Cl)c1S(=O)(=O)N1CCn2cccc2C1CC(=O)NCCCN1C(C)CCCC1C (stereo not drawn) [Example 155, 2-[2-[(2-Chloro-6-methyl-phenyl)sulfonyl]-1,2,3,4-tetrahydro-pyrrolo[1,2-a]pyrazin-1-yl]-N-[3-(2,6-dimethyl-piperidin-1-yl)-propyl]-acetamide] | 61.5 |
| Cc1ccc2[nH]c(C3CCN(C(=O)CC4c5cccn5CCN4S(=O)(=O)c4cccc(C(F)(F)F)c4)CC3)nc2c1 (stereo not drawn) [Example 189, 1-[4-(5-Methyl-1H-benzoimidazol-2-yl)-piperidin-1-yl]-2-[2-[[3-(trifluoromethyl)phenyl]sulfonyl]-1,2,3,4-tetrahydro-pyrrolo[1,2-a]pyrazin-1-yl]-ethanone] | -1.61 |
| Cc1ccc(C)n1CCN1CCN(C(=O)CC2c3cccn3CCN2S(=O)(=O)c2ccccc2)CC1 (stereo not drawn) [Example 178, 2-[2-(Benzenesulfonyl)-1,2,3,4-tetrahydro-pyrrolo[1,2-a]pyrazin-1-yl]-1-[4-[2-(2,5-dimethyl-1H-pyrrol-1-yl)-ethyl]-piperazin-1-yl]-ethanone] | 17.2 |
| COc1cc(C)c(S(=O)(=O)N2CCn3cccc3C2CC(=O)N2CCN(c3ccc(Cl)c(Cl)c3)CC2)c(C)c1 (stereo not drawn) [Example 238, 1-[4-(3,4-Dichlorophenyl)-piperazin-1-yl]-2-[2-[(4-methoxy-2,6-dimethyl-phenyl)sulfonyl]-1,2,3,4-tetrahydro-pyrrolo[1,2-a]pyrazin-1-yl]-ethanone] | 17.6 |
| Cc1cc(C)c(CN2CCN(C(=O)CC3c4cccn4CCN3S(=O)(=O)c3cccc(C(F)(F)F)c3)CC2)c(C)c1 (stereo not drawn) [Example 236, 2-[2-[[3-(Trifluoromethyl)phenyl]sulfonyl]-1,2,3,4-tetrahydro-pyrrolo[1,2-a]pyrazin-1-yl]-1-[4-[(2,4,6-trimethyl-phenyl)-methyl]-piperazin-1-yl]-ethanone] | 9.23 |
| COc1cc(C)c(S(=O)(=O)N2CCn3cccc3C2CC(=O)NCCCN2C(C)CCCC2C)c(C)c1 (stereo not drawn) [Example 143, N-[3-(2,6-Dimethyl-piperidin-1-yl)-propyl]-2-[2-[(4-methoxy-2,6-dimethyl-phenyl)sulfonyl]-1,2,3,4-tetrahydro-pyrrolo[1,2-a]pyrazin-1-yl]-acetamide] | 37.4 |
| COc1cc(C)c(S(=O)(=O)N2CCn3cccc3C2CC(=O)N2CCC(CCN3CCCCC3)CC2)c(C)c1 (stereo not drawn) [Example 146, 2-[2-[(4-Methoxy-2,6-dimethyl-phenyl)sulfonyl]-1,2,3,4-tetrahydro-pyrrolo[1,2-a]pyrazin-1-yl]-1-[4-(2-piperidin-1-yl-ethyl)-piperidin-1-yl]-ethanone] | 73.5 |
| COc1cc(C)c(S(=O)(=O)N2CCn3cccc3C2CC(=O)N2CCC(O)(c3cccnc3)CC2)c(C)c1 (stereo not drawn) [Example 141, 1-(4-Hydroxy-4-pyridin-3-yl-piperidin-1-yl)-2-[2-[(4-methoxy-2,6-dimethyl-phenyl)sulfonyl]-1,2,3,4-tetrahydro-pyrrolo[1,2-a]pyrazin-1-yl]ethanone] | 37.8 |
| O=C(CC1c2cccn2CCN1S(=O)(=O)c1ccccc1)N1CCC(N2CCCC2)CC1 (stereo not drawn) [Example 175, 2-[2-(Benzenesulfonyl)-1,2,3,4-tetrahydro-pyrrolo[1,2-a]pyrazin-1-yl]-1-(4-pyrrolidin-1-yl-piperidin-1-yl)-ethanone] | 9.54 |

Results, then the molecule that gave them:

| inhibition at 10 µM [%] | Structure (SMILES) |
| --- | --- |
| 8.85 | O=C(CC1c2cccn2CCN1S(=O)(=O)c1ccc(C(F)(F)F)cc1Cl)NCC1CCCN(Cc2ccccc2)C1 (stereo not drawn) [Example 254, N-[(1-Benzyl-piperidin-3-yl)-methyl]-2-[2-[[2-chloro-4-(trifluoromethyl)-phenyl]sulfonyl]-1,2,3,4-tetrahydro-pyrrolo[1,2-a]pyrazin-1-yl]-acetamide] |
| -37.6 | COc1cc(C)c(S(=O)(=O)N2CCn3cccc3C2CC(=O)N2CCCCC2Cc2ccccn2)c(C)c1 (stereo not drawn) [Example 244, 2-[2-[(4-Methoxy-2,6-dimethyl-phenyl)sulfonyl]-1,2,3,4-tetrahydro-pyrrolo[1,2-a]pyrazin-1-yl]-1-[2-(pyridin-2-yl-methyl)-piperidin-1-yl]-ethanone] |
| -8.74 | COc1cc(C)c(S(=O)(=O)N2CCn3cccc3C2CC(=O)N2CCN(Cc3c(C)cc(C)cc3C)CC2)c(C)c1 (stereo not drawn) [Example 239, 2-[2-[(4-Methoxy-2,6-dimethyl-phenyl)sulfonyl]-1,2,3,4-tetrahydro-pyrrolo[1,2-a]pyrazin-1-yl]-1-[4-[(2,4,6-trimethyl-phenyl)-methyl]-piperazin-1-yl]-ethanone] |
| 1.05 | N#Cc1cccnc1N1CCN(C(=O)CC2c3cccn3CCN2S(=O)(=O)c2cccc(C(F)(F)F)c2)CC1 (stereo not drawn) [Example 269, 2-[4-[2-[2-[[3-(Trifluoromethyl)phenyl]sulfonyl]-1,2,3,4-tetrahydro-pyrrolo[1,2-a]pyrazin-1-yl]-acetyl]-piperazin-1-yl]-pyridine-3-carbonitrile] |
| -4.75 | CN1CCN(C(=O)CC2c3cccn3CCN2S(=O)(=O)c2ccccc2)C(c2ccccc2)C1 (stereo not drawn) [Example 267, 2-[2-(Benzenesulfonyl)-1,2,3,4-tetrahydro-pyrrolo[1,2-a]pyrazin-1-yl]-1-(4-methyl-2-phenyl-piperazin-1-yl)-ethanone] |
| 6.85 | COc1cc(C)c(S(=O)(=O)N2CCn3cccc3C2CC(=O)N2CCN(Cc3ccc4c(c3)OCO4)CC2)c(C)c1 (stereo not drawn) [Example 246, 1-[4-(1,3-Benzodioxol-5-yl-methyl)-piperazin-1-yl]-2-[2-[(4-methoxy-2,6-dimethyl-phenyl)sulfonyl]-1,2,3,4-tetrahydro-pyrrolo[1,2-a]pyrazin-1-yl]-ethanone] |
| -27.4 | COc1cc(C)c(S(=O)(=O)N2CCn3cccc3C2CC(=O)N2CCN(CCC#N)CC2)c(C)c1 (stereo not drawn) [Example 247, 3-[4-[2-[2-[(4-Methoxy-2,6-dimethyl-phenyl)sulfonyl]-1,2,3,4-tetrahydro-pyrrolo[1,2-a]pyrazin-1-yl]-acetyl]-piperazin-1-yl]-propionitrile] |
